Consider two molecules from ChEMBL document CHEMBL4266036, “Hoshinoamides A and B, Acyclic Lipopeptides from the Marine Cyanobacterium Caldora penicillata” (J Nat Prod, 2018).

Molecules are shown by their SMILES.

One experiment relates to HeLa. Kind of experiment: Cytotoxicity against human HeLa cells after 72 hrs by MTT assay. It is filed as cell-based. On the technique in general: Formazan colour is commonly taken as a measure of viable cells.
A further experiment deals with Plasmodium falciparum. Kind of experiment: Antiplasmodial activity against Plasmodium falciparum 3D7 […] after 72 hrs by NBT dye based LDH assay. Type of experiment: functional, organism-based. The settings on record: 3D7, 72 h.

Take `CC[C@H](C)[C@H](NC(=O)[C@H](CC(C)C)N(C)C(=O)CCCCCNC(=O)CCCc1ccc(O)cc1)C(=O)N(C)[C@@H](C(=O)N[C@@H](CCC(N)=O)C(=O)N[C@H](C(=O)N(C)[C@H](Cc1ccccc1)C(=O)N1CCC[C@H]1C(=O)OC)C(C)C)C(C)C`: the IC50 (in general, the concentration at which inhibition is half-maximal) turned out to be 14 µM in the experiment on HeLa and 0.52 µM in the experiment with Plasmodium falciparum.
The matching figures for `CC[C@H](C)[C@H](NC(=O)[C@H](CC(C)C)N(C)C(=O)CCCCCCCCNC(=O)CCCc1ccc(O)cc1)C(=O)N(C)[C@@H](C(=O)N[C@@H](CCC(N)=O)C(=O)N1CCC[C@H]1C(=O)N(C)[C@@H](Cc1ccccc1)C(=O)N1CCC[C@H]1C(=O)OC)C(C)C`: 29 µM and 1 µM.
